# Laboratory results: patent publication US4849335A, “Method for detecting the mutagenicity of substances susceptible of inducing the deterioration of cellular DNA, utilizing the production of an SOS response” (priority 1982, dated 1989)
# Legend:
# Format in all cases: cell-based, E. coli strain PQ37
# [1] = system: sfiA::operon lacZ recombinant; details: FIG. 1 curve c; measured 2 hours after the start of the experiment; inhibitory concentrations
# Source text: FIGS. 2 and 3 contain the curves representing the variations of the logarithm of the abovesaid ratio, named below SOSIF (abbreviation of "SOS induction factor"), measurable in similar cultures, in the presence of different genotoxic substances, according to their respective concentrations in the culture media, in nanomoles per specimen tested.
# (§1) The micro-organism employed in the tests whose description follows is a transformed E. coli strain, named PQ37, deposited in the National Collection of Culture Micro-Organisms (C.N.C.M.) of the Pasteur Institute of Paris, under no. I-205 on the date of Sept. 24, 1982. The genetic characteristics of this micro-organism are as follows: F^- thr leu his-4 pyrD thi galE galK or T lacΔUI69 srl 300::Tn10 rpoB rpsL uvrA rfa trp::Muc^+ sfiA::Mud(AP, lac)c-Ts. It is constitutive for the synthesis of the alkaline phosphatase (Pho^c). […]
# A culture of the abovesaid micro-organism previously developed up to the exponential phase in LB culture medium (Bacto tryptone 10 g, Bacto yeast extract 5 g, NaC1 10 g, water Q.S.P. 1 1), also containing ampicillin, is diluted ten times either in fresh medium, or in the activation mixture described by AMES B.N. and Coll. […] After two hours incubation at 37° C. with shaking, the β-galoactosidase and alkaline phosphatase activities were determined. […]
# β-galactosidase = β-galactosidase activity in E. coli PQ37 culture; details: FIG. 1 curve a; beyond a certain concentration of genotoxic substance; 2 hours
# Source text: The micro-organism employed in the tests whose description follows is a transformed E. coli strain, named PQ37, deposited in the National Collection of Culture Micro-Organisms (C.N.C.M.) of the Pasteur Institute of Paris, under no. I-205 on the date of Sept. 24, 1982. The genetic characteristics of this micro-organism are as follows: F^- thr leu his-4 pyrD thi galE galK or T lacΔUI69 srl 300::Tn10 rpoB rpsL uvrA rfa trp::Muc^+ sfiA::Mud(AP, lac)c-Ts. It is constitutive for the synthesis of the alkaline phosphatase (Pho^c).
# This strain has been obtained by genetic recombinations suitable to confer on it the above-indicated genotype, from the strain containing the recombinant sfiA::lacZ deposited at the C.N.C.M., under no. I-152 Apr. 13, 1981.
# A culture of the abovesaid micro-organism previously developed up to the exponential phase in LB culture medium (Bacto tryptone 10 g, Bacto yeast extract 5 g, NaC1 10 g, water Q.S.P. 1 1), also containing ampicillin, is diluted ten times either in fresh medium, or in the activation mixture described by AMES B.N. and Coll. (1975), "Mutation Research" 31, 347-364. Aliquot parts of 0.6 ml are distributed in glass test tubes each containing a certain dose of the substance under test. After two hours incubation at 37° C. with shaking, the β-galoactosidase and alkaline phosphatase activities were determined. […]
# alkaline phosphatase = alkaline phosphatase activity in E. coli PQ37 culture; details: FIG. 1 curve b; beyond a certain concentration of genotoxic substance; 2 hours
# Source text: as §1
# A culture of the abovesaid micro-organism previously developed up to the exponential phase in LB culture medium (Bacto tryptone 10 g, Bacto yeast extract 5 g, NaC1 10 g, water Q.S.P. 1 1), also containing ampicillin, is diluted ten times either in fresh medium, or in the activation mixture described by AMES B.N. and Coll. […] After two hours incubation at 37° C. with shaking, the β-galoactosidase and alkaline phosphatase activities were determined.
# It is possible in particular to carry out the determination of the alkaline phosphatase under the following condition: 2.7 ml of T buffer (solution of 121 g of Tris (hydroxy-methyl)-aminomethane per liter, whose pH has been adjusted to 8.8 with HC1) were added to 0.3 ml of the cell culture. […] 5 minutes later, 1 ml of 2 N Tris is added to restore the color, which is measured in the spectrophotometer at 420 nm. […]
structure (smiles),measurement,setting,value
"O=[N+]([O-])c1cc[n+]([O-])c2ccccc12 [4NQO, 4-nitroquinoline-1-oxide]",SOSIF ratio at concentrations of the genotoxic substance which inhibit the synthesis of the proteins,[1],remains substantially constant
same,β-galactosidase activity (inhibiting effect of the synthesis of the proteins),β-galactosidase,reduction
same,alkaline phosphatase activity (inhibiting effect of the synthesis of the proteins),alkaline phosphatase,reduction
